Tests used:
[1] = test system: BMp190 cells (murine bone marrow transduced with BCR-Abl p190); test: Cell viability assay, BCR-Abl p190-expressing murine bone marrow (BM-p190); type: cell-based
Excerpt: (§1) Leukemia cell assays: Effects of chemical changes on ability to kill cells as observed in cell viability assays using the BCR-ABL positive human acute lymphoblastic leukemia (ALL) cell line, Sup-B15 are described. Assays using the Sup-B15 cell line were designed to determine efficacy of azacyclic constrained small molecule analogs of FTY720 in killing leukemia cells. Analogs were generated using the synthesis methods mentioned above. Sup-B15 cells were maintained at 2-3 million/mL in RPMI 1640 (by Mediatech™) supplemented with 10% fetal calf serum (by Sigma-Aldrich™), 10 mM Hepes (by Mediatech™), 55 μM β-mercaptoethanol (by Sigma-Aldrich™), 2 mM L-glutamine (by Mediatech™), and antibiotics. BV173, Nalm-6, and Blin-1 were maintained at 1-2 million/mL and CCRF-CEM at less than 500,000/mL in the same medium. BMp190 cells were created by transducing murine bone marrow cells with pMIC-p190 which expresses the p190 isoform of BCR-Abl and human CD4 from an IRES; these cells were kept at 1-2 million/mL in RPMI supplemented as above.
(§2) Flow cytometry: Much of the biological activity presented is shown through flow cytometry data. […] Here, IC50 flow cytometry assays were used. In them, viability was determined at 72 hours by vital dye exclusion [propium iodide or DAPI (4′,6-diamindino-2-phenylindole)]. To measure nutrient receptor expression following exposure to FTY720 and azacyclic constrained analogs of FTY720, surface 4F2hc expression was measured after 3 hours of drug treatment by staining 150,000 cells with phycoerythrin-conjugated mouse anti-human CD98 (by BD Biosciences™). Analysis was restricted to viable cells.
(§3) All samples for the disclosed sets of data were analyzed on a BD LSR II flow cytometer and data analyzed with FlowJo™ software (by Treestar™). IC50's were calculated and statistical tests were performed using GraphPad Prism™.

BV173 Ph+ ALL cell line = test: Cell viability assay, BV173; type: cell-based, human; settings: 72 h, vital dye exclusion and flow cytometry; read-out: Mean IC50 (+/- SEM) in cell viability assay, BV173 Ph+ ALL
Excerpt: as §1, §2, §3

[2] = test system: CCRF-CEM Ph- ALL cell line; test: Cell viability assay, CCRF-CEM; type: cell-based, human; settings: 72 h, vital dye exclusion and flow cytometry; read-out: Mean IC50 (+/- SEM) in cell viability assay, CCRF-CEM Ph- ALL
Excerpt: as §1, §2, §3

Nalm-6 Ph- ALL cell line = test: Cell viability assay, Nalm-6; type: cell-based, human; settings: 72 h, vital dye exclusion and flow cytometry; read-out: Mean IC50 (+/- SEM) in cell viability assay, Nalm-6 Ph- ALL
Excerpt: as §1, §2, §3

[3] = test system: sphingosine-1-phosphate receptors; test: S1P receptor activation in CHO cells expressing the receptors; type: cell-based; settings: added to CHO cells expressing the receptors
Procedure: When the pure phosphates are added to these CHO cells, multiple S1P receptors are activated when the phosphates are present at 1-10 uM. There is no enantiomer-selectivity in the activation of S1P receptors.

[4] = test system: patient-derived BCR-Abl+ acute lymphoblastic leukemia cells; test: Viability of patient-derived BCR-Abl+ acute lymphoblastic leukemia cells; type: cell-based, human; settings: 96 h, flow cytometry (vital dye exclusion)
Procedure: Finally, in FIG. 10g dose response curves are provided for studies conducted with patient-derived BCR-Abl+ acute lymphoblastic leukemia cells. Viability was measured at 96 h by flow cytometry (vital dye exclusion).

SphK1 null MEFs = test: Sensitivity of SphK1 null MEFs; type: cell-based
Procedure: (§4) The importance of phosphorylation in the activity of compound 6 was then examined. In this study MEF knockout lines that show the same differential sensitivity to compound 6 relative to its enantiomers as leukemia cells were used (FIG. 10h). […] A phosphate and a non-phosphorylatable analog of compound 6 were then tested.

SphK2 null MEFs = test: Sensitivity of SphK2 null MEFs; type: cell-based
Procedure: as §4

sphingosine kinase 2 = target: T1, sphingosine kinase 2 (Mus musculus, UniProt Q9JIA7); test: Phosphorylation by sphingosine kinase 2 in cells; type: cell-based
T1 construct: endogenous in cells
T1 sequence (Q9JIA7 1-617): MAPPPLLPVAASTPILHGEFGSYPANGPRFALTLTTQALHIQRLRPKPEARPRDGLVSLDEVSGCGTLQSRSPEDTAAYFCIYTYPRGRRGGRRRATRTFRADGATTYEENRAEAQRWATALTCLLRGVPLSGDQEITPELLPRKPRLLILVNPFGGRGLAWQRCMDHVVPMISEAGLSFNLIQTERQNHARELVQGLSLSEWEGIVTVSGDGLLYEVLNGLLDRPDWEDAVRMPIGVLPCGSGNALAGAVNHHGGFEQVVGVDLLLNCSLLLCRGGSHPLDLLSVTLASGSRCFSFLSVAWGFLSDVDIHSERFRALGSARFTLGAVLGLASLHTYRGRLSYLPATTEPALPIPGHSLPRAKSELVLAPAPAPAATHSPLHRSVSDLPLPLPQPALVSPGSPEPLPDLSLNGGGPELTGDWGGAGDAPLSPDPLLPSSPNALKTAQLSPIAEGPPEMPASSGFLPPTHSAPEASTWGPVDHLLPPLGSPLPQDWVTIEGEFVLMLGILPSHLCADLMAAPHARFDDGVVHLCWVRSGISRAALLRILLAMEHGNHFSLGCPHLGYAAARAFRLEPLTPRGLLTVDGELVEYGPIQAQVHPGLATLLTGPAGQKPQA
Procedure: as §4

[5] = Distribution of compound 6 and its phosphorylated form in plasma, bone marrow and spleen of mice; type: in vivo; settings: normalization to total protein; tissues versus blood
Procedure: A study was then conducted to examine what happens to compound 6 when administered to animals. Mice were treated with 10 mg/kg doses of compound 6 (i.p.) and then the mice were sacrificed at various time points, then plasma, bone marrow, and spleen tissue were extracted to build curves. […] Indeed, the ratio of phosphorylated to unphosphorylated compound 6 in the spleen and bone marrow is close to 1:1 after i.p. administration.

BCR-Abl+ SFO2 cells = test: Combination with trametinib in BCR-Abl+ SFO2 patient-derived leukemia cells; type: cell-based, human; settings: cytostatic concentration of trametinib + cytostatic concentration of compound 6
Excerpt: FIGS. 10n and 10o provide data results from a study of the effectiveness of treating BCR-Abl+ SFO2 cells (10n), and also in BCR-Abl− LAX7R cells (10o), which is a late-stage leukemia resistant to chemotherapy.

human colon cancer cells = test: Combination with trametinib in human colon cancer cells; type: cell-based

For CCCCCCCCc1ccc(CO[C@@H]2CN[C@@H](CO)C2)cc1.Cl [Compound 6], the IC50 ([1]; 72 h, vital dye exclusion and flow cytometry, read-out: Mean IC50 (+/- SEM) in cell viability assay, BM-p190) was 0.5 ± 0.1 µM, the “more active than compound 5” value ([1]; murine bone marrow transformed by BCR-ABL p190) was 10 fold and the IC50 (BV173 Ph+ ALL cell line) was 3.8 ± 0.4 µM. The IC50 [2] was 8.2 ± 0.7 µM, the IC50 (Nalm-6 Ph- ALL cell line) was 13.5 ± 2.4 µM and the “activation of sphingosine-1-phosphate receptors” value [3] was “do not activate sphingosine-1-phosphate receptors”. For the same molecule, the “potency in dose response, viability” value [4] was “more potent than FTY720 and its enantiomer, compound 39”, the “differential sensitivity to compound 6 relative to its enantiomers” value (SphK1 null MEFs) was “this difference is maintained” and the “gain of functional activity” value (SphK2 null MEFs) was “no longer shows gain of functional activity”. The “phosphorylation by sphingosine kinase 2 in cells” value (sphingosine kinase 2) was “more efficient”, the tissue accumulation [5] was “accumulates in tissues to higher levels than are present in blood” and the “cell killing, combination with trametinib” value (BCR-Abl+ SFO2 cells) was “kills patient-derived leukemia cells without killing the irradiated stromal cell layer”. For the same molecule, the “cell killing, combination of trametinib and compound 6” value (human colon cancer cells) was “can kill human colon cancer cells” and the “cell killing, single agent” value (human colon cancer cells) was “do not die”.

Reference: patent publication US10077236B2, “Azacyclic constrained analogs of FTY720” (The Regents of the University of California, priority 2013, dated 2018)
